In patent US11198677B2, “Deoxyuridine triphosphatase inhibitors containing amino sulfonyl linkage” (University of Southern California, priority 2015, dated 2021):

Key:
[1] = system: colorectal (HCT116), breast (MCF-7) and non-small cell lung (H1299, A549, H358 and H460) cell line models; assay: Colony forming assay; type: cell-based; details: increasing concentrations between 0.5 and 2.5 μmol/L; all cell lines evaluated
Method: Colony forming assay showing the ability of colon (SW620, HCT116), non-small cell lung (A549, H460, H1299 and H358) and breast (MCF7) cancer cells to survive and proliferate following transient 24 hour exposure to test compounds, FUdR and combinations are determined. Specifically, cells are seeded at densities between 50 and 100 cells/well in 24-well plates. Twenty-four hours later, cells are treated with increasing concentrations of a test compound, a fixed dose of FUdR and combinations of these. After 24 hours, drug is removed, cells are rinsed and allowed to outgrow for 10-14 days. At the conclusion of the outgrowth, cells are fixed in 60% ice cold methanol and stained with 0.1% crystal violet, scanned and counted. Data is presented as percentage of untreated controls (mean±SD). Fraction affected and combination indexes are calculated according to the method of Chou and Talalay where <1 is indicative of a synergistic drug interaction.
Colony forming assays are performed to evaluate the effectiveness of test compounds alone and in combination with the fluoropyrimidine thymidylate synthase (TS) inhibitor fluorodeoxyuridine (FUdR) at reducing cancer cell viability in colorectal (HCT116), breast (MCF-7) and non-small cell lung (H1299, A549, H358 and H460) cell line models. […]

[2] = system: colorectal (HCT116 and SW620) cell line models; assay: MTS growth inhibition assay; type: cell-based; details: increasing concentrations between 0 and 100 μmol/L; both colorectal cancer cell lines evaluated
Method: The Cell Titer AQueous MTS assay (Promega) is carried out according to the manufacturers guidelines. […] The combination effect is determined by the combination index (CI) method utilizing Calcusyn software (Biosoft, Ferguson, Mo.). Fraction affected (FA) is calculated from the percent growth inhibition: FA=[…]. CI values <1, synergism; 1-1.2, additive and >1.2, antagonism.
Test compounds are evaluated for their antitumor activity in colorectal cancer cells using the MTS growth inhibition assay. HCT116 and SW620 cells are exposed to increasing concentrations of each agent for 72 hours and growth inhibition is directly compared to vehicle-treated controls. The NSCLC cell lines A549 and H1299 are exposed to increasing concentrations of each agent for 72 hours and growth inhibition is directly compared to vehicle-treated controls.
MTS growth inhibition assays are performed to evaluate the effectiveness of the test compounds alone and in combination with the fluoropyrimidine thymidylate synthase (TS) inhibitor 5-fluorouracil (5-FU) at inhibiting the growth of colorectal (HCT116 and SW620) cell line models. […] Simultaneous treatment with increasing concentrations of 5-FU and a test compound at fixed concentrations of 25 μmol/L is determined.

Question: `O=c1[nH]c(=O)n([C@H]2C[C@H](O)[C@@H](CO)O2)cc1F` [FUdR, fluorodeoxyuridine] was tested. Which colonies formed [1] did it give?
Answer: dose-dependent decreases in colonies formed

Question: With `O=c1[nH]cc(F)c(=O)[nH]1` [Compound 5-FU, 5-fluorouracil] as the compound, how does the growth inhibition [2] read?
Answer: dose-dependent increases in growth inhibition
